Assay results taken from patent US9695155B2, “Herbicidal substituted pyrimidinyloxy benzene compounds” (E. I. DU PONT DE NEMOURS AND COMPANY, priority 2013, dated 2017).

Key:
barnyardgrass [1] = assay: Test A preemergence; assay type: in vivo, Echinochloa crus-galli; conditions: for Barnyardgrass plant response rating (0 to 100 scale, 0 is no effect, 100 is complete control): 125 g ai/ha; for Barnyardgrass plant response rating: 500 g ai/ha, 0 to 100 scale where 0 is no effect and 100 is complete control
Outline: (§1)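 Compounds in non-phytotoxic solvent with surfactant applied as soil spray preemergence, or postemergence to plants 2-10 cm at one- to two-leaf stage, in loam/sand. After approximately 10 days in greenhouse, injury rated visually versus untreated controls, 0 (no effect) to 100 (complete control).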

large (Lg) crabgrass [2] = assay: Test A preemergence; assay type: in vivo, Digitaria sanguinalis; conditions: for Crabgrass, Large plant response rating (0 to 100 scale): 125 g ai/ha; for Crabgrass, Large plant response rating: 500 g ai/ha, 0 to 100 scale where 0 is no effect and 100 is complete control
Outline: as §1

giant foxtail [3] = assay: Test A preemergence; assay type: in vivo, Setaria faberii; conditions: for Foxtail, Giant plant response rating (0 to 100 scale): 125 g ai/ha; for Foxtail, Giant plant response rating: 500 g ai/ha, 0 to 100 scale where 0 is no effect and 100 is complete control
Outline: as §1

morningglory [4] = assay: Test A preemergence; assay type: in vivo, Ipomoea spp.; conditions: for Morningglory plant response rating (0 to 100 scale): 125 g ai/ha; for Morningglory plant response rating: 500 g ai/ha, 0 to 100 scale where 0 is no effect and 100 is complete control
Outline: as §1

pigweed [5] = assay: Test A preemergence; assay type: in vivo, Amaranthus retroflexus; conditions: for Pigweed plant response rating (0 to 100 scale): 125 g ai/ha; for Pigweed plant response rating: 500 g ai/ha, 0 to 100 scale where 0 is no effect and 100 is complete control
Outline: as §1

velvetleaf [6] = assay: Test A preemergence; assay type: in vivo, Abutilon theophrasti; conditions: for Velvetleaf plant response rating (0 to 100 scale): 125 g ai/ha; for Velvetleaf plant response rating: 500 g ai/ha, 0 to 100 scale where 0 is no effect and 100 is complete control
Outline: as §1

wheat [7] = assay: Test A preemergence; assay type: in vivo, Triticum aestivum; conditions: for Wheat plant response rating (0 to 100 scale): 125 g ai/ha; for Wheat plant response rating: 500 g ai/ha, 0 to 100 scale where 0 is no effect and 100 is complete control
Outline: as §1

corn [8] = assay: Test A preemergence; assay type: in vivo, Zea mays; conditions: for Corn plant response rating (0 to 100 scale): 125 g ai/ha; for Corn plant response rating: 500 g ai/ha, 0 to 100 scale where 0 is no effect and 100 is complete control
Outline: as §1

barnyardgrass [9] = assay: Test A postemergence; assay type: in vivo, Echinochloa crus-galli; conditions: 0 to 100 scale where 0 is no effect and 100 is complete control; for Barnyardgrass plant response rating: 125 g ai/ha; for Plant response rating, Barnyardgrass: 500 g ai/ha
Outline: as §1

large (Lg) crabgrass [10] = assay: Test A postemergence; assay type: in vivo, Digitaria sanguinalis; conditions: 0 to 100 scale where 0 is no effect and 100 is complete control; for Crabgrass, Large plant response rating: 125 g ai/ha; for Plant response rating, Crabgrass, Large: 500 g ai/ha
Outline: as §1

giant foxtail [11] = assay: Test A postemergence; assay type: in vivo, Setaria faberii; conditions: 0 to 100 scale where 0 is no effect and 100 is complete control; for Foxtail, Giant plant response rating: 125 g ai/ha; for Plant response rating, Foxtail, Giant: 500 g ai/ha
Outline: as §1

morningglory [12] = assay: Test A postemergence; assay type: in vivo, Ipomoea spp.; conditions: 0 to 100 scale where 0 is no effect and 100 is complete control; for Morningglory plant response rating: 125 g ai/ha; for Plant response rating, Morningglory: 500 g ai/ha
Outline: as §1

pigweed [13] = assay: Test A postemergence; assay type: in vivo, Amaranthus retroflexus; conditions: 0 to 100 scale where 0 is no effect and 100 is complete control; for Pigweed plant response rating: 125 g ai/ha; for Plant response rating, Pigweed: 500 g ai/ha
Outline: as §1

velvetleaf [14] = assay: Test A postemergence; assay type: in vivo, Abutilon theophrasti; conditions: 0 to 100 scale where 0 is no effect and 100 is complete control; for Velvetleaf plant response rating: 125 g ai/ha; for Plant response rating, Velvetleaf: 500 g ai/ha
Outline: as §1

wheat [15] = assay: Test A postemergence; assay type: in vivo, Triticum aestivum; conditions: 0 to 100 scale where 0 is no effect and 100 is complete control; for Wheat plant response rating: 125 g ai/ha; for Plant response rating, Wheat: 500 g ai/ha
Outline: as §1

corn [16] = assay: Test A postemergence; assay type: in vivo, Zea mays; conditions: 0 to 100 scale where 0 is no effect and 100 is complete control; for Corn plant response rating: 125 g ai/ha; for Plant response rating, Corn: 500 g ai/ha
Outline: as §1

rice = assay: Test B flooded paddy test; assay type: in vivo, Oryza sativa; conditions: Flood, 250 g ai/ha; 0 to 100 scale where 0 is no effect and 100 is complete control
Outline: (§2)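 Plants were grown to the 2-leaf stage, then pots were flooded to 3 cm above the soil and compounds were applied directly into the paddy water. That depth was held throughout, and after 13 to 15 days in the greenhouse injury was rated visually against controls on a 0–100 scale (0 no effect, 100 complete control).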

sedge, umbrella = assay: Test B flooded paddy test; assay type: in vivo, Cyperus difformis; conditions: Flood, 250 g ai/ha; 0 to 100 scale where 0 is no effect and 100 is complete control
Outline: as §2

Heteranthera limosa = assay: Test B flooded paddy test; assay type: in vivo; conditions: Flood, 250 g ai/ha; 0 to 100 scale where 0 is no effect and 100 is complete control
Outline: as §2

barnyardgrass [17] = assay: Test B flooded paddy test; assay type: in vivo, Echinochloa crus-galli; conditions: Flood, 250 g ai/ha; 0 to 100 scale where 0 is no effect and 100 is complete control
Outline: as §2

Compound	Barnyardgrass plant response rating (0 to 100 scale, 0 is no effect, 100 is complete control) (barnyardgrass [1])	Barnyardgrass plant response rating (barnyardgrass [1])	Crabgrass, Large plant response rating (0 to 100 scale) (large (Lg) crabgrass [2])	Crabgrass, Large plant response rating (large (Lg) crabgrass [2])	Foxtail, Giant plant response rating (0 to 100 scale) (giant foxtail [3])	Foxtail, Giant plant response rating (giant foxtail [3])	Morningglory plant response rating (0 to 100 scale) (morningglory [4])	Morningglory plant response rating (morningglory [4])	Pigweed plant response rating (0 to 100 scale) (pigweed [5])	Pigweed plant response rating (pigweed [5])	Velvetleaf plant response rating (0 to 100 scale) (velvetleaf [6])	Velvetleaf plant response rating (velvetleaf [6])	Wheat plant response rating (0 to 100 scale) (wheat [7])	Wheat plant response rating (wheat [7])	Corn plant response rating (0 to 100 scale) (corn [8])	Corn plant response rating (corn [8])	Barnyardgrass plant response rating (barnyardgrass [9])	Plant response rating, Barnyardgrass (barnyardgrass [9])	Crabgrass, Large plant response rating (large (Lg) crabgrass [10])	Plant response rating, Crabgrass, Large (large (Lg) crabgrass [10])	further results
O=[N+]([O-])c1cnc(Oc2ccccc2-n2cc(Br)cn2)nc1 [Compound 225]	0	0	0	0	0	0	0	0	0	0	0	0	0	0	0	0	0	10	0	10	Foxtail, Giant plant response rating (giant foxtail [11]): 0; Plant response rating, Foxtail, Giant (giant foxtail [11]): 0; Morningglory plant response rating (morningglory [12]): 0; Plant response rating, Morningglory (morningglory [12]): 0; Pigweed plant response rating (pigweed [13]): 0; Plant response rating, Pigweed (pigweed [13]): 0; Velvetleaf plant response rating (velvetleaf [14]): 0; Plant response rating, Velvetleaf (velvetleaf [14]): 0; Wheat plant response rating (wheat [15]): 0; Plant response rating, Wheat (wheat [15]): 0; Corn plant response rating (corn [16]): 0; Plant response rating, Corn (corn [16]): 0; Plant response rating, Rice (rice): 0; Plant response rating, Sedge, Umbrella (sedge, umbrella): 0; Plant response rating, Ducksalad (Heteranthera limosa): 0; Plant response rating, Barnyardgrass (barnyardgrass [17]): 0
N#Cc1cccc(Oc2ncc(Cl)cn2)c1-n1cc(Br)cn1 [Compound 235]	0	10	70	100	30	100	0	0	90	100	0	0	0	0	0	0	0	0	10	30	Foxtail, Giant plant response rating (giant foxtail [11]): 0; Plant response rating, Foxtail, Giant (giant foxtail [11]): 30; Morningglory plant response rating (morningglory [12]): 30; Plant response rating, Morningglory (morningglory [12]): 30; Pigweed plant response rating (pigweed [13]): 90; Plant response rating, Pigweed (pigweed [13]): 100; Velvetleaf plant response rating (velvetleaf [14]): 30; Plant response rating, Velvetleaf (velvetleaf [14]): 30; Wheat plant response rating (wheat [15]): 0; Plant response rating, Wheat (wheat [15]): 0; Corn plant response rating (corn [16]): 0; Plant response rating, Corn (corn [16]): 0; Plant response rating, Rice (rice): 0; Plant response rating, Sedge, Umbrella (sedge, umbrella): 0; Plant response rating, Ducksalad (Heteranthera limosa): 0; Plant response rating, Barnyardgrass (barnyardgrass [17]): 0
N#Cc1cnn(-c2c(C=O)cccc2Oc2ncc(Cl)cn2)c1 [Compound 237]	0	10	0	10	0	0	0	0	0	80	0	10	0	0	0	0	0	0	0	0	Foxtail, Giant plant response rating (giant foxtail [11]): 0; Plant response rating, Foxtail, Giant (giant foxtail [11]): 0; Morningglory plant response rating (morningglory [12]): 0; Plant response rating, Morningglory (morningglory [12]): 0; Pigweed plant response rating (pigweed [13]): 30; Plant response rating, Pigweed (pigweed [13]): 70; Velvetleaf plant response rating (velvetleaf [14]): 20; Plant response rating, Velvetleaf (velvetleaf [14]): 30; Wheat plant response rating (wheat [15]): 0; Plant response rating, Wheat (wheat [15]): 0; Corn plant response rating (corn [16]): 0; Plant response rating, Corn (corn [16]): 0; Plant response rating, Rice (rice): 0; Plant response rating, Sedge, Umbrella (sedge, umbrella): 0; Plant response rating, Ducksalad (Heteranthera limosa): 0; Plant response rating, Barnyardgrass (barnyardgrass [17]): 0
N#Cc1cc(F)cc(Oc2ncc(Br)cn2)c1-n1cc(Br)cn1 [Compound 239]	20	100	100	100	90	100	0	30	100	100	10	20	0	20	0	10	0	80	10	70	Foxtail, Giant plant response rating (giant foxtail [11]): 20; Plant response rating, Foxtail, Giant (giant foxtail [11]): 70; Morningglory plant response rating (morningglory [12]): 40; Plant response rating, Morningglory (morningglory [12]): 40; Pigweed plant response rating (pigweed [13]): 90; Plant response rating, Pigweed (pigweed [13]): 100; Velvetleaf plant response rating (velvetleaf [14]): 50; Plant response rating, Velvetleaf (velvetleaf [14]): 60; Wheat plant response rating (wheat [15]): 0; Plant response rating, Wheat (wheat [15]): 0; Corn plant response rating (corn [16]): 0; Plant response rating, Corn (corn [16]): 20; Plant response rating, Rice (rice): 30; Plant response rating, Sedge, Umbrella (sedge, umbrella): 70; Plant response rating, Ducksalad (Heteranthera limosa): 65; Plant response rating, Barnyardgrass (barnyardgrass [17]): 0
